# Test system: 874868-142-R-J2-PDC complex spheroids, growth % test/control
# Assay: Anticancer human tumor 874868-142-R-J2-PDC patient-derived head and neck squamous carcinoma cell line growth inhibition [CLK]
# Conditions: for viability, T/C: stronger effect = lower value
# Method in brief: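 Patient-derived tumor cells grown as complex spheroids with HUVEC endothelial cells and mesenchymal stem cells, treated with drug combinations. Concentrations descend in half-log steps from near clinical Cmax, or from 10 microM if Cmax unknown.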
# 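Note: spheroids exposed to the compounds for 7 days.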
# 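Throughout, for viability, T/C: 100% = DMSO vehicle control viability.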
smiles,measurement,setting,value
CC(CO)NC(=O)c1cc(-c2ccc(Cl)cc2)nn(-c2cnn(C)c2)c1=O (centres undefined) + CN1CCN(c2cc(C(=O)Nc3cc4cc(-c5cnn(C)c5)ccc4cn3)ccn2)CC1,IC50,"curve of first compound, second compound 0.0316 µM",> 10000 nM
same,IC50,"curve of first compound, second compound 0.1 µM",> 10000 nM
same,IC50,"curve of first compound, second compound 0.316 µM",< 31.6 nM
same,IC50,"curve of first compound, second compound 1 µM",< 31.6 nM
same,IC50,"curve of first compound, second compound 3.16 µM",< 31.6 nM
same,IC50,"curve of first compound, second compound 10 µM",< 31.6 nM
same,"viability, T/C","second compound 0.0316 µM, first compound 0.0316 µM",105%
same,"viability, T/C","second compound 0.0316 µM, first compound 0.1 µM",99.2%
same,"viability, T/C","second compound 0.0316 µM, first compound 0.316 µM",82.4%
same,"viability, T/C","second compound 0.0316 µM, first compound 1 µM",92.8%
same,"viability, T/C","second compound 0.0316 µM, first compound 3.16 µM",93%
same,"viability, T/C","second compound 0.0316 µM, first compound 10 µM",83.8%
same,"viability, T/C","second compound 0.1 µM, first compound 0.0316 µM",76.1%
same,"viability, T/C","second compound 0.1 µM, first compound 0.1 µM",72.2%
same,"viability, T/C","second compound 0.1 µM, first compound 0.316 µM",65.8%
same,"viability, T/C","second compound 0.1 µM, first compound 1 µM",67.9%
same,"viability, T/C","second compound 0.1 µM, first compound 3.16 µM",68.5%
same,"viability, T/C","second compound 0.1 µM, first compound 10 µM",77.2%
same,"viability, T/C","second compound 0.316 µM, first compound 0.0316 µM",19.4%
same,"viability, T/C","second compound 0.316 µM, first compound 0.1 µM",24.8%
same,"viability, T/C","second compound 0.316 µM, first compound 0.316 µM",20.6%
same,"viability, T/C","second compound 0.316 µM, first compound 1 µM",19.1%
same,"viability, T/C","second compound 0.316 µM, first compound 3.16 µM",20.2%
same,"viability, T/C","second compound 0.316 µM, first compound 10 µM",29.1%
same,"viability, T/C","second compound 1 µM, first compound 0.0316 µM",0.42%
same,"viability, T/C","second compound 1 µM, first compound 0.1 µM",5.08%
same,"viability, T/C","second compound 1 µM, first compound 0.316 µM",2.66%
same,"viability, T/C","second compound 1 µM, first compound 1 µM",0.31%
same,"viability, T/C","second compound 1 µM, first compound 3.16 µM",0.63%
same,"viability, T/C","second compound 1 µM, first compound 10 µM",1.19%
same,"viability, T/C","second compound 3.16 µM, first compound 0.0316 µM",0.31%
same,"viability, T/C","second compound 3.16 µM, first compound 0.1 µM",0.77%
same,"viability, T/C","second compound 3.16 µM, first compound 0.316 µM",0.29%
same,"viability, T/C","second compound 3.16 µM, first compound 1 µM",0.32%
same,"viability, T/C","second compound 3.16 µM, first compound 3.16 µM",3.04%
same,"viability, T/C","second compound 3.16 µM, first compound 10 µM",2.75%
same,"viability, T/C","second compound 10 µM, first compound 0.0316 µM",0.18%
same,"viability, T/C","second compound 10 µM, first compound 0.1 µM",0.21%
same,"viability, T/C","second compound 10 µM, first compound 0.316 µM",2.19%
same,"viability, T/C","second compound 10 µM, first compound 1 µM",0.22%
same,"viability, T/C","second compound 10 µM, first compound 3.16 µM",3.03%
same,"viability, T/C","second compound 10 µM, first compound 10 µM",0.28%
COc1c(OCCCN2CCOCC2)ccc2c3n(c(=NC(=O)c4cnc(N)nc4)nc12)CCN3,"viability, T/C",compound 0.00316 µM,67%
same,"viability, T/C",compound 0.01 µM,48.4%
same,"viability, T/C",compound 0.0316 µM,22.6%
same,"viability, T/C",compound 0.1 µM,10.7%
same,"viability, T/C",compound 0.316 µM,5.08%
same,"viability, T/C",compound 1 µM,3.71%
same,IC50,curve of compound,8.88 nM

# Reference: PubChem BioAssay AID2060601 (Molecular Pharmacology Branch, DTP, NCI, 2025)
